Data reported in patent US9302999B2, “Substituted triazoles as herbicides” (E. I. DU PONT DE NEMOURS AND COMPANY, priority 2012, dated 2016).

How the values were obtained:
Assay type in all cases: in vivo
[1] = tested on: foxtail, green (green foxtail, Setaria viridis); assay: Test D pre-/postemergence: foxtail, green
In short: (§1)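 Visual 0–100 rating versus untreated controls (0 no effect, 100 complete control), taken 14 to 21 days after treatment in a controlled growth environment. Preemergence: silt loam soil. Postemergence: peat moss/vermiculite medium, plants 2 to 18 cm, 1- to 4-leaf stage. Solvent mixture with surfactant.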

[2] = tested on: pigweed (Amaranthus retroflexus); assay: Test D pre-/postemergence: pigweed
In short: as §1

[3] = tested on: barley, winter (winter barley, Hordeum vulgare); assay: Test D pre-/postemergence: barley, winter
In short: as §1

[4] = tested on: crabgrass, large (large crabgrass, Digitaria sanguinalis); assay: Test F pre-/postemergence: crabgrass, large; conditions: Preemergence
In short: (§2)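 Visual response scores, 0 meaning no effect and 100 complete control, were assigned against untreated controls 14 to 21 days after treatment. Test chemicals in a surfactant-containing non-phytotoxic solvent were applied preemergence to seeded silt loam soil or postemergence to 2–18 cm plants in peat-based medium.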

[5] = tested on: barnyardgrass (Echinochloa crus-galli); assay: Test F pre-/postemergence: barnyardgrass
In short: as §2

[6] = tested on: nightshade (eastern black nightshade, Solanum ptycanthum); assay: Test F pre-/postemergence: nightshade; conditions: Preemergence
Description: Seeds of plant species selected from corn (Zea mays), soybean (Glycine max), velvetleaf (Abutilon theophrasti), lambsquarters (Chenopodium album), poinsettia, wild (wild poinsettia, Euphorbia heterophylla), pigweed, palmer (palmer pigweed, Amaranthus palmeri), waterhemp (common waterhemp, Amaranthus rudis), surinam grass (Brachiaria decumbens), crabgrass, Brazil (Brazilian crabgrass, Digitaria horizontalis), panicum, fall (fall panicum Panicum dichotomiflorum), crabgrass, large (large crabgrass, Digitaria sanguinalis), foxtail, giant (giant foxtail, Setaria faberii), foxtail, green (green foxtail Setaria viridis), goosegrass (Eleusine indica), ragweed (common ragweed, Ambrosia elatior), barnyardgrass (Echinochloa crus-galli), sandbur (southern sandbur, Cenchrus echinatus), arrowleaf sida (Sida rhombifolia), ryegrass, Italian (Italian ryegrass, Lolium multiflorum), dayflower, VA (Virginia (VA) dayflower, Commelina virginica), field bindweed (Convolvulus arvensis), cocklebur (common cocklebur, Xanthium strumarium), morningglory (Ipomoea coccinea), nightshade (eastern black nightshade, Solanum ptycanthum), kochia (Kochia scoparia), nutsedge, yellow (yellow nutsedge, Cyperus esculentus), johnsongrass (Sorghum halepense), smartweed (ladysthumb smartweed, Polygonum persicaria), and beggarticks (hairy beggarticks, Bidens pilosa), were planted into a silt loam soil and treated preemergence with test chemicals formulated in a non-phytotoxic solvent mixture which included a surfactant. At the same time, plants selected from these crop and weed species and also pigweed (Amaranthus retroflexus), waterhemp_RES1 (ALS/Triazine resistant common waterhemp, Amaranthus rudis) and waterhemp_RES2 (ALS/HPPD resistant common waterhemp, Amaranthus rudis) were planted in pots containing a planting medium comprising spaghnum peat moss, vermiculite, wetting agent and starter nutrients treated with postemergence applications of some of the test chemicals formulated in the same manner. Plants ranged in height from 2 to 18 cm for postemergence treatments (1- to 4-leaf stage).
Treated plants and controls were maintained in a greenhouse for 14 to 21 days, after which time all species were compared to controls and visually evaluated. Plant response ratings, summarized in Table E, are based on a scale of 0 to 100 where 0 is no effect and 100 is complete control. A dash (-) response means no test result.

[7] = tested on: beggarticks (hairy beggarticks, Bidens pilosa); assay: Test F pre-/postemergence: beggarticks
In short: as §2

[8] = Postemergence, 31 g ai/ha, scale 0 to 100 (0 no effect, 100 complete control)
[9] = Postemergence, 62 g ai/ha, scale 0 to 100 (0 no effect, 100 complete control)
[10] = Postemergence, 125 g ai/ha, scale 0 to 100, 0 no effect, 100 complete control
[11] = Postemergence, 16 g ai/ha, scale 0 to 100
[12] = Preemergence, 16 g ai/ha, scale 0 to 100, 0 no effect, 100 complete control
[13] = Preemergence, 31 g ai/ha, scale 0 to 100, 0 no effect, 100 complete control
[14] = Preemergence, 62 g ai/ha, scale 0 to 100
[15] = Preemergence, 125 g ai/ha, scale 0 to 100
[16] = 16 g ai/ha, scale 0 to 100, 0 no effect, 100 complete control
[17] = 31 g ai/ha, scale 0 to 100, 0 no effect, 100 complete control
[18] = Preemergence, 250 g ai/ha, scale 0 to 100
[19] = Postemergence, 8 g ai/ha, scale 0 to 100
[20] = Postemergence, 31 g ai/ha, scale 0 to 100
[21] = Postemergence, 62 g ai/ha, scale 0 to 100
[22] = Postemergence, 125 g ai/ha, scale 0 to 100
[23] = Preemergence, 8 g ai/ha, scale 0 to 100, 0 no effect, 100 complete control

SMILES: Cc1nn(-c2ccc(C(F)(F)F)c(F)c2)nc1Oc1ccnc(C(F)(F)F)c1 [Compound 148]
- Plant response rating: Foxtail, Green [1, 8]: 15
- Plant response rating: Foxtail, Green [1, 9]: 50
- Plant response rating: Foxtail, Green [1, 10]: 60
- Plant response rating, Foxtail, Green [1, 11]: 15
- Plant response rating, Foxtail, Green [1, 12]: 15
- Plant response rating, Foxtail, Green [1, 13]: 50
- Plant response rating, Foxtail, Green [1, 14]: 70
- Plant response rating, Foxtail, Green [1, 15]: 100
- Plant response rating: Pigweed [2, 8]: 85
- Plant response rating: Pigweed [2, 9]: 95
- Plant response rating: Pigweed [2, 10]: 95
- Plant response rating, Pigweed [2, 11]: 70
- Plant response rating, Pigweed [2, 12]: 15
- Plant response rating, Pigweed [2, 13]: 70
- Plant response rating, Pigweed [2, 14]: 85
- Plant response rating, Pigweed [2, 15]: 100
- Plant response rating: Barley, Winter [3, 8]: 20
- Plant response rating: Barley, Winter [3, 9]: 25
- Plant response rating: Barley, Winter [3, 10]: 30
- Plant response rating, Barley, Winter [3, 11]: 10
- Plant response rating, Barley, Winter [3, 12]: 0
- Plant response rating, Barley, Winter [3, 13]: 0
- Plant response rating, Barley, Winter [3, 14]: 5
- Plant response rating, Barley, Winter [3, 15]: 5
- Plant response rating, Crabgrass, Large [4, 16]: 95
- Plant response rating, Crabgrass, Large [4, 17]: 100
- Plant response rating, Crabgrass, Large ([4]; 62 g ai/ha, scale 0 to 100): 100
- Plant response rating, Crabgrass, Large ([4]; 125 g ai/ha, scale 0 to 100): 100
- Plant response rating, Crabgrass, Large ([4]; 250 g ai/ha, scale 0 to 100): 100
- Plant response rating, Barnyardgrass [5, 12]: 0
- Plant response rating, Barnyardgrass [5, 13]: 0
- Plant response rating, Barnyardgrass [5, 14]: 0
- Plant response rating, Barnyardgrass [5, 15]: 20
- Plant response rating, Barnyardgrass [5, 18]: 98
- Plant response rating, Nightshade [6, 16]: 0
- Plant response rating, Nightshade [6, 17]: 0
- Plant response rating, Nightshade ([6]; 125 g ai/ha, scale 0 to 100): 98
- Plant response rating, Nightshade ([6]; 250 g ai/ha, scale 0 to 100): 98
- Plant response rating, Beggarticks [7, 12]: 0
- Plant response rating, Beggarticks [7, 13]: 0
- Plant response rating, Beggarticks [7, 14]: 0
- Plant response rating, Beggarticks [7, 15]: 0
- Plant response rating, Beggarticks [7, 18]: 0

SMILES: CCc1nn(-c2ccc(C(F)(F)F)cc2)nc1Cc1ccnc(C(F)(F)F)c1 [Compound 155]
- Plant response rating: Foxtail, Green [1, 8]: 15
- Plant response rating: Foxtail, Green [1, 9]: 70
- Plant response rating: Foxtail, Green [1, 10]: 80
- Plant response rating, Foxtail, Green [1, 11]: 20
- Plant response rating, Foxtail, Green [1, 12]: 20
- Plant response rating, Foxtail, Green [1, 13]: 65
- Plant response rating, Foxtail, Green [1, 14]: 85
- Plant response rating, Foxtail, Green [1, 15]: 100
- Plant response rating: Pigweed [2, 8]: 75
- Plant response rating: Pigweed [2, 9]: 95
- Plant response rating: Pigweed [2, 10]: 95
- Plant response rating, Pigweed [2, 11]: 70
- Plant response rating, Pigweed [2, 12]: 60
- Plant response rating, Pigweed [2, 13]: 80
- Plant response rating, Pigweed [2, 14]: 100
- Plant response rating, Pigweed [2, 15]: 100
- Plant response rating: Barley, Winter [3, 8]: 20
- Plant response rating: Barley, Winter [3, 9]: 25
- Plant response rating: Barley, Winter [3, 10]: 35
- Plant response rating, Barley, Winter [3, 11]: 15
- Plant response rating, Barley, Winter [3, 12]: 5
- Plant response rating, Barley, Winter [3, 13]: 0
- Plant response rating, Barley, Winter [3, 14]: 5
- Plant response rating, Barley, Winter [3, 15]: 10
- Plant response rating, Crabgrass, Large ([4]; 62 g ai/ha, scale 0 to 100): 100
- Plant response rating, Crabgrass, Large ([4]; 125 g ai/ha, scale 0 to 100): 100
- Plant response rating, Crabgrass, Large ([4]; 250 g ai/ha, scale 0 to 100): 100
- Plant response rating, Barnyardgrass [5, 14]: 30
- Plant response rating, Barnyardgrass [5, 15]: 30
- Plant response rating, Barnyardgrass [5, 18]: 100
- Plant response rating, Nightshade ([6]; 125 g ai/ha, scale 0 to 100): 100
- Plant response rating, Nightshade ([6]; 250 g ai/ha, scale 0 to 100): 100
- Plant response rating, Beggarticks [7, 14]: 40
- Plant response rating, Beggarticks [7, 15]: 70
- Plant response rating, Beggarticks [7, 18]: 80

SMILES: CCOc1nn(-c2ccc(F)cc2)nc1Cc1ccnc(C(F)(F)F)c1 [Compound 196, 4-[[5-ethoxy-2-(4-fluorophenyl)-2H-1,2,3-triazol-4-yl]methyl]-2-(trifluoromethyl)pyridine]
- Plant response rating: Foxtail, Green [1, 8]: 80
- Plant response rating: Foxtail, Green [1, 9]: 85
- Plant response rating: Foxtail, Green [1, 10]: 95
- Plant response rating, Foxtail, Green [1, 11]: 55
- Plant response rating, Foxtail, Green [1, 12]: 60
- Plant response rating, Foxtail, Green [1, 13]: 60
- Plant response rating, Foxtail, Green [1, 14]: 75
- Plant response rating, Foxtail, Green [1, 15]: 100
- Plant response rating: Pigweed [2, 8]: 95
- Plant response rating: Pigweed [2, 9]: 95
- Plant response rating: Pigweed [2, 10]: 100
- Plant response rating, Pigweed [2, 11]: 85
- Plant response rating, Pigweed [2, 12]: 65
- Plant response rating, Pigweed [2, 13]: 100
- Plant response rating, Pigweed [2, 14]: 100
- Plant response rating, Pigweed [2, 15]: 100
- Plant response rating: Barley, Winter [3, 8]: 20
- Plant response rating: Barley, Winter [3, 9]: 35
- Plant response rating: Barley, Winter [3, 10]: 40
- Plant response rating, Barley, Winter [3, 11]: 15
- Plant response rating, Barley, Winter [3, 12]: 5
- Plant response rating, Barley, Winter [3, 13]: 10
- Plant response rating, Barley, Winter [3, 14]: 15
- Plant response rating, Barley, Winter [3, 15]: 40
- Plant response rating, Crabgrass, Large [4, 16]: 75
- Plant response rating, Crabgrass, Large [4, 17]: 100
- Plant response rating, Crabgrass, Large ([4]; 62 g ai/ha, scale 0 to 100): 100
- Plant response rating, Crabgrass, Large ([4]; 125 g ai/ha, scale 0 to 100): 100
- Plant response rating, Barnyardgrass [5, 19]: 30
- Plant response rating, Barnyardgrass [5, 11]: 40
- Plant response rating, Barnyardgrass [5, 20]: 60
- Plant response rating, Barnyardgrass [5, 21]: 60
- Plant response rating, Barnyardgrass [5, 22]: 90
- Plant response rating, Barnyardgrass [5, 23]: 0
- Plant response rating, Barnyardgrass [5, 12]: 25
- Plant response rating, Barnyardgrass [5, 13]: 40
- Plant response rating, Barnyardgrass [5, 14]: 70
- Plant response rating, Barnyardgrass [5, 15]: 100
- Plant response rating, Nightshade ([6]; 8 g ai/ha, scale 0 to 100, 0 no effect, 100 complete control): 95
- Plant response rating, Nightshade [6, 16]: 95
- Plant response rating, Nightshade [6, 17]: 95
- Plant response rating, Nightshade ([6]; 125 g ai/ha, scale 0 to 100): 100
- Plant response rating, Beggarticks [7, 19]: 50
- Plant response rating, Beggarticks [7, 11]: 60
- Plant response rating, Beggarticks [7, 20]: 60
- Plant response rating, Beggarticks [7, 21]: 60
- Plant response rating, Beggarticks [7, 22]: 70
- Plant response rating, Beggarticks [7, 23]: 0
- Plant response rating, Beggarticks [7, 12]: 50
- Plant response rating, Beggarticks [7, 13]: 50
- Plant response rating, Beggarticks [7, 14]: 50
- Plant response rating, Beggarticks [7, 15]: 65
